Measured values taken from ChEMBL document CHEMBL1759891, “Structure based design, synthesis and SAR of cyclic hydroxyethylamine (HEA) BACE-1 inhibitors” (Bioorg Med Chem Lett, 2011).

What was measured:
MDR1 (P-gp) [1] = test: Permeability from basolateral to apical side in dog MDCK cells expressing human MDR-1 gene; type: ADME, cell-based, Canis lupus familiaris; conditions: read-out: permeability
Beta-secretase 1 [2] = biological target: T1, Beta-secretase 1 (Homo sapiens, UniProt P56817); test: Inhibition of human BACE-1
T1 sequence (P56817 whole entry): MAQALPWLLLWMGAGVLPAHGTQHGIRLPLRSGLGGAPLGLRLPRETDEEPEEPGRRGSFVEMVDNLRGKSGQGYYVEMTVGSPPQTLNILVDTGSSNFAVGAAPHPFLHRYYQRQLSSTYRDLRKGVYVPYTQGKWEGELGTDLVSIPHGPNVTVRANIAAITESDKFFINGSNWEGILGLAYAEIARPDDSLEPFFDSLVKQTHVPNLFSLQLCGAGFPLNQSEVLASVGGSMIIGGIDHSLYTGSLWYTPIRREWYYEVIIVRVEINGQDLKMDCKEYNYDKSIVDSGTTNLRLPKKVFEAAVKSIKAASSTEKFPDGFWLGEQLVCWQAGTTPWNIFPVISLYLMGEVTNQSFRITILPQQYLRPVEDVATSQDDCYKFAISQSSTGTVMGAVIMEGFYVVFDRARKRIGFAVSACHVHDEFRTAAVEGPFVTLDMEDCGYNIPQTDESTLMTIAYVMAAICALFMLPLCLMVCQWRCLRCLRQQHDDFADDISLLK

MDR1 (P-gp) [3] = test: Permeability from apical to basolateral side in dog MDCK cells expressing human MDR-1 gene; type: ADME, cell-based, Canis lupus familiaris; conditions: read-out: permeability
Cathepsin D = Cathepsin D (Homo sapiens, UniProt P07339); test: Inhibition of human cathepsin D
Sequence of Cathepsin D (P07339 65-162 limits assumed): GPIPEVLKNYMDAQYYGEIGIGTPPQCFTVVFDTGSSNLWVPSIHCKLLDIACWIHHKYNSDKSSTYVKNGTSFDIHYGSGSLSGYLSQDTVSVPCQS
Sequence of Cathepsin D (P07339 169-412 limits assumed): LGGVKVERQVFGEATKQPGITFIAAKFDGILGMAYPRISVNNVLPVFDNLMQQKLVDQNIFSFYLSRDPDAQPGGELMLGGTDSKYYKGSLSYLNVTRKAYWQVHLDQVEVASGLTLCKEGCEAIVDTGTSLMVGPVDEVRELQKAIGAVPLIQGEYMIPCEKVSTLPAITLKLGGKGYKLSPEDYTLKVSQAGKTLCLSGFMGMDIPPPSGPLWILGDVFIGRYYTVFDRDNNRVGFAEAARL

MDR1 (P-gp) [4] = test: Efflux ratio of permeability from basolateral to apical side to apical to basolateral side of dog MDCK cells expressing human MDR1; type: ADME, cell-based, Canis lupus familiaris
[5] = Metabolic stability in rat liver microsomes assessed as half life; type: ADME, Microsome
Beta-secretase 1 [6] = biological target: T1, Beta-secretase 1; test: Inhibition of human BACE-1-mediated amyloid beta 40 release in APP-transfected […] cells; type: cell-based
Plasma = test: Drug level in plasma of mouse at 2 umol/kg, iv; type: ADME; conditions: read-out: Drug uptake
Brain = test: Drug level in brain of mouse at 2 umol/kg, iv; type: ADME, organism-based; conditions: in vivo, read-out: Drug uptake
[7] = Dissociation constant, pKa of the compound; type: physicochemical
Homo sapiens = species: Homo sapiens; test: Selectivity ratio of IC50 for human cathepsin D to IC50 for human BACE-1

| SMILES | Papp B→A (MDR1 (P-gp) [1]) [×10⁻⁶ cm/s] | IC50 (Beta-secretase 1 [2]) [µM] | Papp A→B (MDR1 (P-gp) [3]) [×10⁻⁶ cm/s] | IC50 (Cathepsin D) [µM] | efflux ratio (MDR1 (P-gp) [4]) | half-life [5] [min] | IC50 (Beta-secretase 1 [6]) [µM] | concentration (Plasma) [nM] | concentration (Brain) [nM] | pKa [7] | Ratio IC50 (Homo sapiens) |
| --- | --- | --- | --- | --- | --- | --- | --- | --- | --- | --- | --- |
| CC(C)c1cccc(CN[C@H]2CS(=O)(=O)C[C@@H](Cc3ccc(O)c(CCO)c3)[C@@H]2O)c1 | 28 | 0.99 | 0.9 | 1.7 | 32 | – | – | – | – | – | – |
| CC(C)c1cccc(CN[C@H]2CS(=O)(=O)C[C@@H](Cc3cccc(Br)c3)[C@@H]2O)c1 (racemic) | 7.7 | 0.76 | 5.4 | 2.3 | 1.4 | – | – | – | – | – | – |
| CC(C)c1cccc(CN[C@H]2CS(=O)(=O)C[C@@H](Cc3ccc(O)c(CO)c3)[C@@H]2O)c1 | 30 | 1.2 | 1.8 | 2.1 | 17 | – | – | – | – | – | – |
| CNC(=O)Oc1ccc(C[C@@H]2CS(=O)(=O)C[C@H](NCc3cccc(C(C)C)c3)[C@H]2O)cc1Br | 88 | 0.06 | 3.8 | 0.37 | 23 | – | – | – | – | – | – |
| N[C@H]1CS(=O)(=O)C[C@@H](Cc2ccc(O)c(Br)c2)[C@@H]1O | – | > 100 | – | – | – | – | – | – | – | – | – |
| Cc1cccc(Cc2cc(C[C@@H]3CS(=O)(=O)C[C@H](NCc4cccc(C(C)C)c4)[C@H]3O)ccc2O)c1 (racemic) | – | 6.2 | – | 7.1 | – | – | – | – | – | – | – |
| CC(C)(C)c1cccc(CN[C@H]2CS(=O)(=O)C[C@@H](Cc3ccc(O)c(Br)c3)[C@@H]2O)c1 | 16 | 0.055 | 7.7 | 0.42 | 2.1 | 6 | 0.55 | 320 | 180 | – | – |
| COc1ccc(C[C@@H]2CS(=O)(=O)C[C@H](NCc3cccc(C(C)C)c3)[C@H]2O)cc1Br | 9.7 | 2.8 | 3.7 | 2.4 | 2.6 | – | – | – | – | – | – |
| CCCOc1cccc(C[C@@H]2CS(=O)(=O)C[C@H](NCc3cccc(C(C)C)c3)[C@H]2O)c1 (racemic) | 7.9 | 2.3 | 5.7 | 2 | 1.4 | – | – | – | – | – | – |
| CCCN1C(=O)OC[C@@H]1Cc1cc(C[C@@H]2CS(=O)(=O)C[C@H](NCc3cccc(C(C)C)c3)[C@H]2O)ccc1O | 26 | – | 1.4 | 6.4 | 19 | 4 | – | 670 | < 50 | – | – |
| O=S1(=O)C[C@@H](Cc2ccc(O)c(Br)c2)[C@H](O)[C@@H](NCc2cccc(C3CC3)c2)C1 | – | – | – | – | – | – | – | – | – | 5.7 | – |
| CC(C)c1cccc(CN[C@H]2COC[C@@H](Cc3ccc(O)c(Br)c3)[C@@H]2O)c1 | – | 55 | – | – | – | – | – | – | – | 7.1 | – |
| CC(C)c1cccc(CN[C@H]2CS(=O)(=O)C[C@@H](Cc3ccc(O)cc3)[C@@H]2O)c1 (racemic) | 37 | 1.8 | 9 | 5.4 | 4.2 | – | – | – | – | – | – |
| CC(=O)N[C@@H](Cc1cc(F)cc(F)c1)[C@H](O)CNCc1cccc(C(C)C)c1 | 41 | 3.2 | 2.2 | 4.7 | 18 | – | – | – | – | – | – |
| CCCc1cc(C[C@@H]2CS(=O)(=O)C[C@H](NCc3cccc(C(C)C)c3)[C@H]2O)ccc1O | 18 | 0.19 | 4.2 | 1.8 | 4.4 | – | – | – | – | – | – |
| CCc1cc(C[C@@H]2CS(=O)(=O)C[C@H](NCc3cccc(C(C)C)c3)[C@H]2O)ccc1O | 45 | 0.37 | 15 | 2.4 | 3.1 | – | – | – | – | – | – |
| O=S1(=O)C[C@@H](Cc2ccc(O)c(Br)c2)[C@H](O)[C@@H](NCc2cc(Cl)cc(Cl)c2)C1 | – | 4.2 | – | – | – | – | – | – | – | – | – |
| CC(C)c1cccc(CN[C@H]2CS(=O)(=O)C[C@@H](Cc3ccc(O)c(Br)c3)[C@@H]2O)c1 | 33 | 0.3 | 11 | 1.2 | 3 | 3 | 1.5 | 1030 | 210 | – | 10 |
| CC(C)c1ccnc(CN[C@H]2CS(=O)(=O)C[C@@H](Cc3ccc(O)c(Br)c3)[C@@H]2O)c1 | – | 4.3 | – | – | – | – | – | – | – | – | – |
| CCCCc1cc(C[C@@H]2CS(=O)(=O)C[C@H](NCc3cccc(C(C)C)c3)[C@H]2O)ccc1O | 4.2 | 0.15 | 0.8 | 1.9 | 5.5 | – | – | – | – | – | – |
| O=S1(=O)C[C@@H](Cc2ccc(O)c(Br)c2)[C@H](O)[C@@H](NCc2ccccc2)C1 | – | 66 | – | – | – | – | – | – | – | – | – |
| CC(C)Oc1cccc(CN[C@H]2CS(=O)(=O)C[C@@H](Cc3ccc(O)c(Br)c3)[C@@H]2O)c1 | – | 1.4 | – | 0.67 | – | – | 8.5 | – | – | – | – |
| CCCOCc1cccc(C[C@@H]2CS(=O)(=O)C[C@H](NCc3cccc(C(C)C)c3)[C@H]2O)c1 (racemic) | 13 | 1.1 | 7 | 0.9 | 1.8 | – | – | – | – | – | – |
| CC(C)c1cccc(CN[C@H]2CS(=O)(=O)C[C@@H](Cc3ccccc3)[C@@H]2O)c1 (racemic) | 24 | 1.1 | 19 | 1.9 | 1.2 | – | – | – | – | – | – |
